From patent US20020137929A1, “1 - (3-heterocyclylphenyl) isothiourea, -isourea, -guanidine and -amidine herbicidal agents” (Intellectual Property Department, BASF Aktiengesellschaft, priority 1998, published 2002)

Legend:
[1] = tested on: TRZAWR (Wheat, Winter, cv Riband); assay: Postemergence herbicidal evaluation; format: in vivo, Triticum aestivum; conditions: postemergence
Method in brief: (§1)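 Young plants, roughly two weeks from seeding, receive the active ingredient as a sprayed dispersion (acetone/water 50/50, 0.5% TWEEN 20) at 40 psi. Doses span about 0.0156 to 0.500 kg/ha. A visual score from 0 to 9 compares treated with control plants four to five weeks on.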

CYPIR (Rice Flatsedge) = assay: Postemergence weed control under flooded paddy conditions; format: in vivo, Cyperus iria; conditions: postemergence weeds, rated 3 to 4 weeks after treatment
Method in brief: (§2)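 Flood-water application, about 0.0313–0.500 kg/ha a.i. in aqueous/acetone 50/50 v/v; water depth 1.5–3 cm throughout. Weeds 3–5 cm, rice 1.5–2.5 leaf. Greenhouse; 0–9 visual rating vs control at 3–4 wk.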

[2] = tested on: ECHORC (Watergrass (Calif.)); assay: as above; format: in vivo, Echinochloa oryzoides; conditions: postemergence weeds, rated 3 to 4 weeks after treatment
Method in brief: as §2

ECHCG (Barnyardgrass) = assay: Preemergence herbicidal evaluation; format: in vivo, Echinochloa crus-galli; conditions: preemergence, rated 4-5 weeks after treatment, 0-9 scale
Method in brief: (§3)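 Each species is sown separately in potting soil over roughly an inch of soil before any emergence. The soil surface then receives an aqueous acetone spray delivering about 0.0156 to 0.500 kg/ha of compound. After four to five weeks, injury is scored from 0 to 9 relative to a control.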

[3] = tested on: CHEAL (Lambsquarters, Common); assay: Preemergence herbicidal evaluation; format: in vivo, Chenopodium album; conditions: preemergence, rated 4-5 weeks after treatment, 0-9 scale
Method in brief: as §3

[4] = tested on: IPOHE (Morningglory, Ivyleaf); assay: Postemergence herbicidal evaluation; format: in vivo, Ipomoea hederacea; conditions: postemergence
Method in brief: as §1

[5] = tested on: ECHORC (Watergrass (Calif.)); assay: Preemergence weed control under flooded paddy conditions; format: in vivo, Echinochloa oryzoides; conditions: rated 3-4 weeks after treatment
Method in brief: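 Ratings on a 0-9 visual scale cover stand, vigor, malformation, size, chlorosis and overall appearance relative to a control, taken three to four weeks post-treatment. Application was into flood water over freshly sown silt loam at roughly 0.0313 to 0.500 kg/ha.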

SETVI (Foxtail, Green) = assay: Preemergence herbicidal evaluation; format: in vivo, Setaria viridis; conditions: preemergence, rated 4-5 weeks after treatment, 0-9 scale
Method in brief: as §3

ABUTH (Velvetleaf) = assay: Postemergence herbicidal evaluation; format: in vivo, Abutilon theophrasti; conditions: postemergence
Method in brief: as §1

MOOVA (Monochoria) = assay: Preemergence weed control under flooded paddy conditions; format: in vivo, Monochoria vaginalis; conditions: rated 3-4 weeks after treatment
Method in brief: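 Silt loam, seeds in top 0.5 cm; flood held 1.5-3 cm; test cpd as acetone/water 50/50 into flood water, ~0.0313-0.500 kg/ha a.i.; greenhouse 3-4 wk; visual 0-9 score vs control.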

ORYSAT (Rice, Tebonnet) = assay: Preemergence herbicidal evaluation; format: in vivo, Oryza sativa, (L.) Tebonnet; conditions: preemergence, rated 4-5 weeks after treatment, 0-9 scale
Method in brief: as §3

[6] = tested on: IPOHE (Morningglory, Ivyleaf); assay: Preemergence herbicidal evaluation; format: in vivo, Ipomoea hederacea; conditions: preemergence, rated 4-5 weeks after treatment, 0-9 scale
Method in brief: as §3

[7] = tested on: TRZAWR (Wheat, Winter, cv Riband); assay: Preemergence herbicidal evaluation; format: in vivo, Triticum aestivum; conditions: preemergence, rated 4-5 weeks after treatment, 0-9 scale
Method in brief: as §3

CN1C(=O)C(CC(=O)NS(=O)(=O)c2ccccc2)SC1=Nc1cc(-n2c(=O)cc(C(F)(F)F)n(C)c2=O)c(F)cc1Cl (stereo not shown) [Compound 102, 2-{{2-Chloro-5-[3,6-dihydro-3-methyl-2,6-dioxo-4-(trifluoromethyl)-1(2H)-pyrimidinyl]-4-fluorophenyl}imino}-3-methyl-4-oxo-N-(phenylsulfonyl)-5-thiazolidineacetamide]
9.0: CHEAL rating ([3]; 0.5000 kg/ha) | Herbicidal rating IPOHE ([4]; rate 0.0156 kg/ha) | Herbicidal rating IPOHE ([4]; rate 0.0313 kg/ha) | Herbicidal rating IPOHE ([4]; rate 0.0625 kg/ha) | Herbicidal rating IPOHE ([4]; rate 0.1250 kg/ha) | Herbicidal rating ABUTH (ABUTH (Velvetleaf); rate 0.0313 kg/ha) | Herbicidal rating ABUTH (ABUTH (Velvetleaf); rate 0.0625 kg/ha) | Herbicidal rating ABUTH (ABUTH (Velvetleaf); rate 0.1250 kg/ha) | IPOHE rating ([6]; 0.5000 kg/ha)
3.0: Herbicidal rating TRZAWR ([1]; rate 0.0156 kg/ha) | Herbicidal rating TRZAWR ([1]; rate 0.0313 kg/ha)
2.0: Herbicidal rating CYPIR (CYPIR (Rice Flatsedge); Rate 0.2500 kg/ha) | Herbicidal rating ECHORC ([2]; Rate 0.5000 kg/ha) | ECHORC herbicidal effect rating ([5]; 0.5000 kg/ha)
0.0: Herbicidal rating ECHORC ([2]; Rate 0.2500 kg/ha) | ECHCG rating (ECHCG (Barnyardgrass); 0.0156 kg/ha) | ECHCG rating (ECHCG (Barnyardgrass); 0.0313 kg/ha) | ECHCG rating (ECHCG (Barnyardgrass); 0.0625 kg/ha) | ECHCG rating (ECHCG (Barnyardgrass); 0.2500 kg/ha) | ECHCG rating (ECHCG (Barnyardgrass); 0.5000 kg/ha) | ECHORC herbicidal effect rating ([5]; 0.2500 kg/ha) | SETVI rating (SETVI (Foxtail, Green); 0.0625 kg/ha) | SETVI rating (SETVI (Foxtail, Green); 0.2500 kg/ha) | MOOVA herbicidal effect rating (MOOVA (Monochoria); 0.2500 kg/ha) | ORYSAT rating (ORYSAT (Rice, Tebonnet); 0.0156 kg/ha) | ORYSAT rating (ORYSAT (Rice, Tebonnet); 0.0313 kg/ha) | ORYSAT rating (ORYSAT (Rice, Tebonnet); 0.0625 kg/ha) | ORYSAT rating (ORYSAT (Rice, Tebonnet); 0.2500 kg/ha) | IPOHE rating ([6]; 0.0156 kg/ha) | IPOHE rating ([6]; 0.0313 kg/ha) | IPOHE rating ([6]; 0.0625 kg/ha) | TRZAWR rating ([7]; 0.0156 kg/ha) | TRZAWR rating ([7]; 0.0313 kg/ha) | TRZAWR rating ([7]; 0.0625 kg/ha) | TRZAWR rating ([7]; 0.2500 kg/ha)
5.0: CHEAL rating ([3]; 0.0625 kg/ha)
7.0: Herbicidal rating ABUTH (ABUTH (Velvetleaf); rate 0.0156 kg/ha)
4.0: MOOVA herbicidal effect rating (MOOVA (Monochoria); 0.5000 kg/ha)
4.5: Herbicidal rating TRZAWR ([1]; rate 0.0625 kg/ha) | Herbicidal rating TRZAWR ([1]; rate 0.1250 kg/ha)
6.0: Herbicidal rating CYPIR (CYPIR (Rice Flatsedge); Rate 0.5000 kg/ha) | CHEAL rating ([3]; 0.0313 kg/ha)
1.0: CHEAL rating ([3]; 0.2500 kg/ha) | SETVI rating (SETVI (Foxtail, Green); 0.0156 kg/ha) | SETVI rating (SETVI (Foxtail, Green); 0.0313 kg/ha) | SETVI rating (SETVI (Foxtail, Green); 0.5000 kg/ha) | ORYSAT rating (ORYSAT (Rice, Tebonnet); 0.5000 kg/ha) | IPOHE rating ([6]; 0.2500 kg/ha) | TRZAWR rating ([7]; 0.5000 kg/ha)
